According to PMC10746543, “Design principles for cyclin K molecular glue degraders” (Nature Chemical Biology, 2023):
Several values for one entry are separate records, joined by “and”; a condition that tells them apart may be missing. Identical values can stand only once. Like-named read-outs stand apart in the source and are kept apart here.

Assays:
[1] = test system: cyclin K–eGFP degradation reporter; assay: Cyclin K reporter stability analysis (dual-color cyclin K–eGFP reporter); format: cell-based, human; conditions: for reporter assay signal (normalized): replicates
In short: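 HEK293T–Cas9 cells carrying the cyclin K–eGFP reporter were seeded at 1 × 10^6 ml^−1 and exposed to drug or DMSO for 5 h. Flow cytometry gave geometric means of eGFP and mCherry in round, mCherry-positive cells. The eGFP/mCherry ratio was normalized to the mean of three DMSO controls.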

HEK293T cells = assay: Drug sensitivity assay (CellTiter-Glo viability) with or without MLN4924 pretreatment; format: cell-based, human; conditions: for EC50: Homo sapiens, HEK-293T, HEK293T viability, 72 h, compound alone, read-out: Cellular assays EC50; for EC50 / Toxicity rescue: Supplementary Table 2; for Toxicity rescue: MLN4924-mediated cytotoxicity rescue, 10 µM used where n.d.
In short: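 Viability of HEK293T–Cas9 cells was compared after 3-day drug treatment with or without 100 nM MLN4924 pretreatment (2 h, versus DMSO). Values are CellTiter-Glo signals relative to DMSO controls.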

CDK12–cyclin K and DDB1 = biological target: T1, CDK12–cyclin K and DDB1 (Homo sapiens, UniProt Q16531+Q9NYV4, K965R); assay: TR-FRET ternary complex formation assay (compound titration); format: binding; conditions: for TR-FRET signal at compound concentration: replicate titrations
T1 construct: His6–CDK12 (a.a. 713–1,052); full-length or beta-propeller B domain deletion (ΔBPB: a.a. 396–705 deleted) constructs of His6–DDB1ΔBPB, StrepII–Avi–DDB1, or His6–Spy–DDB1; made in house; host or cells: Trichoplusia ni High Five insect cells (baculovirus)
T1 sequence (Q9NYV4 713-1052 K965R): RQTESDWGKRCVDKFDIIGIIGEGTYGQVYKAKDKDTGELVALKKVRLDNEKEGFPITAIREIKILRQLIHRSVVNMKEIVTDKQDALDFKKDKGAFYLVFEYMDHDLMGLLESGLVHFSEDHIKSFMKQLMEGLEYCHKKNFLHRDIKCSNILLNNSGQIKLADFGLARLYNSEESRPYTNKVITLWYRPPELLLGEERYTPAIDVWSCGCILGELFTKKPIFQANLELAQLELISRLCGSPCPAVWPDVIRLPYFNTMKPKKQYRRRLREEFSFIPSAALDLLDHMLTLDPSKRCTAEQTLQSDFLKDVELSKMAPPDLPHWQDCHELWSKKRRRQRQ
T1 sequence (O75909 1-267 partner): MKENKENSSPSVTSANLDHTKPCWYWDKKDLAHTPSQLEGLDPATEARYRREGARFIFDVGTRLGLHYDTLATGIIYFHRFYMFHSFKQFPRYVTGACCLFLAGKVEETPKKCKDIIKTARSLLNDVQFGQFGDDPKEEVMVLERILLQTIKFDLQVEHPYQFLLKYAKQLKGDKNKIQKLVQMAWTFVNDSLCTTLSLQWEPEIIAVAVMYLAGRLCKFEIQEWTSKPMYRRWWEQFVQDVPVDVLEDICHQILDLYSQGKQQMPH
T1 sequence (Q16531 whole entry): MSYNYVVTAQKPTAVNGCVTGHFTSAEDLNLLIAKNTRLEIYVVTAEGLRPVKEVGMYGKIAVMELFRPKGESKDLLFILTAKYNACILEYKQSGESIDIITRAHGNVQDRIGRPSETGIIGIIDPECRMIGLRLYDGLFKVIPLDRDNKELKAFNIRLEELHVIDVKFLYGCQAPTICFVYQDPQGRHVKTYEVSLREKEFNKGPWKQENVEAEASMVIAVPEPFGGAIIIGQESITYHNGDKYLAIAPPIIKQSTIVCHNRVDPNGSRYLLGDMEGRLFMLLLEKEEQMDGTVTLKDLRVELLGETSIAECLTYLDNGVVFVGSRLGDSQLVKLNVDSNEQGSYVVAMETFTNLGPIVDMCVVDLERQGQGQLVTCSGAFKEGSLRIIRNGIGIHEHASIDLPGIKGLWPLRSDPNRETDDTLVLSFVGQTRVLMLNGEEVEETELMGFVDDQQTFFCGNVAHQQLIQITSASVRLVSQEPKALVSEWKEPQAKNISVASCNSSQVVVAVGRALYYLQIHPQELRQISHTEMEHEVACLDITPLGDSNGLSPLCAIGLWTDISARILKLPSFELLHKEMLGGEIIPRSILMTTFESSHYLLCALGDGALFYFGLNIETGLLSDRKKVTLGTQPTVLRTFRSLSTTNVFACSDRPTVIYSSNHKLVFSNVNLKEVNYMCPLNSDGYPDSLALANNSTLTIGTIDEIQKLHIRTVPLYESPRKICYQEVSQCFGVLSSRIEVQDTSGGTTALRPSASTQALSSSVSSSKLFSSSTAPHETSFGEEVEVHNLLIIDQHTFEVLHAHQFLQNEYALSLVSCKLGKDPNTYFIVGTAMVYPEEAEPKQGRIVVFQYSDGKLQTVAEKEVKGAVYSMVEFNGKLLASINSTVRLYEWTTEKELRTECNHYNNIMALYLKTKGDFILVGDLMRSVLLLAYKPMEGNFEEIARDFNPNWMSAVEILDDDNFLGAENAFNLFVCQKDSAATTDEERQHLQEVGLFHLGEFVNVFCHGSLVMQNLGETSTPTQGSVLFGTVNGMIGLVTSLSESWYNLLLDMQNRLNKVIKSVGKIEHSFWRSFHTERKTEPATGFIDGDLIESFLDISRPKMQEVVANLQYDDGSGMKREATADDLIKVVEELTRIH
In short: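 Delayed (70 μs) time-resolved read; FRET computed as 520 nm over 490 nm emission.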

SMILES: CC[C@H](CO)Nc1nc(NCCCc2cccc(C)n2)c2ncn(C(C)C)c2n1 [DS69]
- DC50 ([1]; source data sheet correlations, read-out: DC50): 217 nM
- EC50 (HEK293T cells): 864 nM
- Toxicity rescue (HEK293T cells): 599%
- TR-FRET signal at compound concentration (CDK12–cyclin K and DDB1; compound concentration 0.468 nM): 0.3264 and 0.326
- TR-FRET signal at compound concentration (CDK12–cyclin K and DDB1; compound concentration 2.16 nM): 0.4029 and 0.3893
- TR-FRET signal at compound concentration (CDK12–cyclin K and DDB1; compound concentration 3.6 nM): 0.5395 and 0.5039
- TR-FRET signal at compound concentration (CDK12–cyclin K and DDB1; compound concentration 7.92001 nM): 0.8326 and 0.7539
- TR-FRET signal at compound concentration (CDK12–cyclin K and DDB1; compound concentration 15.84 nM): 1.268 and 1.146
- TR-FRET signal at compound concentration (CDK12–cyclin K and DDB1; compound concentration 30.96 nM): 1.86 and 1.701
- TR-FRET signal at compound concentration (CDK12–cyclin K and DDB1; compound concentration 62.6401 nM): 2.3803 and 2.291
- TR-FRET signal at compound concentration (CDK12–cyclin K and DDB1; compound concentration 125.28 nM): 2.963 and 2.837
- TR-FRET signal at compound concentration (CDK12–cyclin K and DDB1; compound concentration 244.8 nM): 3.2576 and 3.227
- TR-FRET signal at compound concentration (CDK12–cyclin K and DDB1; compound concentration 993.601 nM): 3.4627 and 3.352
- TR-FRET signal at compound concentration (CDK12–cyclin K and DDB1; compound concentration 2001.6 nM): 3.462 and 3.373
- EC50 (CDK12–cyclin K and DDB1; in vitro complex formation, 50 nM CDK12–cyclin K, 100 nM DDB1, text and figures, read-out: TR-FRET EC50): 36 ± 1 nM
- EC50 (CDK12–cyclin K and DDB1; sheet MOESM7, read-out: log TR-FRET EC50 (converted)): 35.9 nM
- EC50 (CDK12–cyclin K and DDB1; source data sheet correlations, read-out: TR-FRET EC50): 35.9 nM

SMILES: CO[C@@H](C(=O)N1Cc2n[nH]c(NC(=O)c3ccc(N4CCN(C)CC4)cc3)c2C1)c1ccccc1 [Danusertib, reference compound]
- DC50 ([1]; Supplementary Table 2, HEK293T cycK-eGFP reporter, 5 h, read-out: Cellular assays DC50): > 10000 nM
- EC50 (HEK293T cells): > 10000 nM
- Toxicity rescue (HEK293T cells): 0%
- TR-FRET signal at compound concentration 4.68 nM (CDK12–cyclin K and DDB1; raw replicate titration data): 0.1339 and 0.1541
- TR-FRET signal at compound concentration 21.6 nM (CDK12–cyclin K and DDB1; raw replicate titration data): 0.1288 and 0.1496
- TR-FRET signal at compound concentration 36 nM (CDK12–cyclin K and DDB1; raw replicate titration data): 0.1327 and 0.1506
- TR-FRET signal at compound concentration 79.2001 nM (CDK12–cyclin K and DDB1; raw replicate titration data): 0.1323 and 0.1494
- TR-FRET signal at compound concentration 158.4 nM (CDK12–cyclin K and DDB1; raw replicate titration data): 0.1293 and 0.1473
- TR-FRET signal at compound concentration 309.6 nM (CDK12–cyclin K and DDB1; raw replicate titration data): 0.1264 and 0.1438
- TR-FRET signal at compound concentration 626.401 nM (CDK12–cyclin K and DDB1; raw replicate titration data): 0.1205 and 0.1382
- TR-FRET signal at compound concentration 1252.8 nM (CDK12–cyclin K and DDB1; raw replicate titration data): 0.1096 and 0.1174
- TR-FRET signal at compound concentration 2448 nM (CDK12–cyclin K and DDB1; raw replicate titration data): 0.09891 and 0.113
- TR-FRET signal at compound concentration 9936.01 nM (CDK12–cyclin K and DDB1; raw replicate titration data): 0.07702 and 0.08712
- TR-FRET signal at compound concentration 20016 nM (CDK12–cyclin K and DDB1; raw replicate titration data): 0.06845 and 0.07789

SMILES: CCc1cnn2c(NCc3ccc[n+]([O-])c3)cc(N3CCCC[C@H]3CCO)nc12 [Dinaciclib]
- reporter assay signal (normalized) ([1]; 5 nM): 0.9772 and 0.948
- reporter assay signal (normalized) ([1]; 10.7 nM): 0.9389 and 0.9407
- reporter assay signal (normalized) ([1]; 22.9 nM): 0.9927 and 0.9745
- reporter assay signal (normalized) ([1]; 48.9 nM): 0.9927 and 0.9772
- reporter assay signal (normalized) ([1]; 105 nM): 0.9863 and 0.9964
- reporter assay signal (normalized) ([1]; 224 nM): 1.014 and 1.0155
- reporter assay signal (normalized) ([1]; 478 nM): 0.99 and 1.01
- reporter assay signal (normalized) ([1]; 2190 nM): 0.9881 and 0.9945
- reporter assay signal (normalized) ([1]; 4680 nM): 1.022 and 0.99
- reporter assay signal (normalized) ([1]; 10000 nM): 1.044 and 1.03
- cyclin K reporter degradation, result in words ([1]; HEK293T): non-degrading
- DC50 ([1]; read-out: Cellular assays DC50, Supplementary Table 2, HEK293T cycK-eGFP reporter, 5 h): > 10000 nM
- viability assay signal (normalized) (HEK293T cells; 5 nM, + MLN4924): 0.8664 and 0.8028
- viability assay signal (normalized) (HEK293T cells; 5 nM, without MLN4924): 0.9657 and 1.0645
- viability assay signal (normalized) (HEK293T cells; 10.7 nM, + MLN4924): 0.7659 and 0.6765
- viability assay signal (normalized) (HEK293T cells; 10.7 nM, without MLN4924): 0.9934 and 0.9758
- viability assay signal (normalized) (HEK293T cells; 22.9 nM, + MLN4924): 0.3817 and 0.3517
- viability assay signal (normalized) (HEK293T cells; 22.9 nM, without MLN4924): 0.3511 and 0.381
- viability assay signal (normalized) (HEK293T cells; 48.9 nM, + MLN4924): 0.2784 and 0.2759
- viability assay signal (normalized) (HEK293T cells; 48.9 nM, without MLN4924): 0.2851 and 0.2898
- viability assay signal (normalized) (HEK293T cells; 105 nM, + MLN4924): 0.2848 and 0.2647
- viability assay signal (normalized) (HEK293T cells; 105 nM, without MLN4924): 0.2976 and 0.3085
- viability assay signal (normalized) (HEK293T cells; 224 nM, + MLN4924): 0.2797 and 0.277
- viability assay signal (normalized) (HEK293T cells; 224 nM, without MLN4924): 0.291 and 0.2867
- viability assay signal (normalized) (HEK293T cells; 478 nM, + MLN4924): 0.2746 and 0.2757
- viability assay signal (normalized) (HEK293T cells; 478 nM, without MLN4924): 0.3016 and 0.2883
- viability assay signal (normalized) (HEK293T cells; 2190 nM, + MLN4924): 0.2646 and 0.2589
- viability assay signal (normalized) (HEK293T cells; 2190 nM, without MLN4924): 0.2893 and 0.2745
- viability assay signal (normalized) (HEK293T cells; 4680 nM, + MLN4924): 0.2516 and 0.2662
- viability assay signal (normalized) (HEK293T cells; 4680 nM, without MLN4924): 0.2682 and 0.2734
- viability assay signal (normalized) (HEK293T cells; 10000 nM, + MLN4924): 0.2413 and 0.2482
- viability assay signal (normalized) (HEK293T cells; 10000 nM, without MLN4924): 0.239 and 0.2604
- Toxicity rescue (HEK293T cells): -12%
- TR-FRET signal at compound concentration 0.468 nM (CDK12–cyclin K and DDB1; compound concentration 0.468 nM, raw replicate titration data): 0.1026 and 0.1033
- TR-FRET signal at compound concentration 2.16 nM (CDK12–cyclin K and DDB1; compound concentration 2.16 nM, raw replicate titration data): 0.1211 and 0.1202
- TR-FRET signal at compound concentration 3.6 nM (CDK12–cyclin K and DDB1; compound concentration 3.6 nM, raw replicate titration data): 0.158 and 0.1569
- TR-FRET signal at compound concentration 4.68 nM (CDK12–cyclin K and DDB1; raw replicate titration data): 0.141 and 0.164
- TR-FRET signal at compound concentration 7.92001 nM (CDK12–cyclin K and DDB1; compound concentration 7.92001 nM, raw replicate titration data): 0.229 and 0.2182
- TR-FRET signal at compound concentration 15.84 nM (CDK12–cyclin K and DDB1; compound concentration 15.84 nM, raw replicate titration data): 0.3288 and 0.3136
- TR-FRET signal at compound concentration 21.6 nM (CDK12–cyclin K and DDB1; raw replicate titration data): 0.2804 and 0.3137
- TR-FRET signal at compound concentration 30.96 nM (CDK12–cyclin K and DDB1; compound concentration 30.96 nM, raw replicate titration data): 0.3522 and 0.3143
- TR-FRET signal at compound concentration 36 nM (CDK12–cyclin K and DDB1; raw replicate titration data): 0.3155 and 0.3474
- TR-FRET signal at compound concentration 62.6401 nM (CDK12–cyclin K and DDB1; compound concentration 62.6401 nM, raw replicate titration data): 0.2879 and 0.2897
- TR-FRET signal at compound concentration 79.2001 nM (CDK12–cyclin K and DDB1; raw replicate titration data): 0.2612 and 0.2943
- TR-FRET signal at compound concentration 125.28 nM (CDK12–cyclin K and DDB1; compound concentration 125.28 nM, raw replicate titration data): 0.2755 and 0.2904
- TR-FRET signal at compound concentration 158.4 nM (CDK12–cyclin K and DDB1; raw replicate titration data): 0.2643 and 0.2881
- TR-FRET signal at compound concentration 244.8 nM (CDK12–cyclin K and DDB1; compound concentration 244.8 nM, raw replicate titration data): 0.2809 and 0.2743
- TR-FRET signal at compound concentration 309.6 nM (CDK12–cyclin K and DDB1; raw replicate titration data): 0.2462 and 0.2819
- TR-FRET signal at compound concentration 626.401 nM (CDK12–cyclin K and DDB1; raw replicate titration data): 0.2417 and 0.2805
- TR-FRET signal at compound concentration 993.601 nM (CDK12–cyclin K and DDB1; compound concentration 993.601 nM, raw replicate titration data): 0.2627 and 0.2615
- TR-FRET signal at compound concentration 1252.8 nM (CDK12–cyclin K and DDB1; raw replicate titration data): 0.2431 and 0.2774
- TR-FRET signal at compound concentration 2001.6 nM (CDK12–cyclin K and DDB1; compound concentration 2001.6 nM, raw replicate titration data): 0.2535 and 0.232
- TR-FRET signal at compound concentration 2448 nM (CDK12–cyclin K and DDB1; raw replicate titration data): 0.2678 and 0.2721
- TR-FRET signal at compound concentration 9936.01 nM (CDK12–cyclin K and DDB1; raw replicate titration data): 0.2509 and 0.2771
- TR-FRET signal at compound concentration 20016 nM (CDK12–cyclin K and DDB1; raw replicate titration data): 0.2402 and 0.253
